Assay results taken from patent US20220242958A1, “BISPECIFIC NANOBODIES” (Ablynx N.V., priority 2013, published 2022).

Tests used:
hEGFR ECD = molecular target: T1, hEGFR ECD (Homo sapiens, UniProt P00533); assay: SPR (Biacore T100) on hEGFR extracellular domain; assay type: binding
T1 construct: directly immobilized hEGFR extracellular domain (Sino Biological, #10001-H08H); purchased Sino Biological 10001-H08H

[1] = system: X4 HIV-1 clone NL4.3 (U87 cells); assay: HIV-1 infection assay, U87 cells + NL4.3; assay type: cell-based; details: Human immunodeficiency virus 1, U-87 MG; n = 3; read-out: IC50 (nM) U87 + NL 4.3 (X4)
[2] = system: X4 HIV-1 clone NL4.3 (PBMCs); assay: microbe, parasite or virus in culture; assay type: cell-based; details: Human immunodeficiency virus 1, PBMC, read-out: IC50 (nM) PBMC + NL 4.3(X4)
[3] = system: HIV-1 NL4.3 AMD-3100 res. variant; assay type: cell-based; details: versus wild-type NL4.3
[4] = system: dual-tropic (R5/X4) HIV-1 HE strain; assay: HIV infection assay, MT-4 cells + HIV-1 HE; assay type: cell-based; details: Human immunodeficiency virus 1, MT4
Text: (§1) Viral strains used were the X4 HIV-1 clone NL4.3, R5 HIV-1 strain BaL, or the R5/X4 HIV-1 HE strain. Infection was done in MT-4 cells or phytohemagglutin-stimulated PBMCs from different healthy donors. The CXCR4-using (X4) HIV-1 clone NL4.3 was obtained from the National Institutes of Health NIAID AIDS Reagent program (Bethesda, Md.), the CCR5-using (R5) HIV-1 strain BaL was obtained from the Medical Research Council AIDS reagent project (Herts, UK). The dual-tropic (R5/X4) HIV-1 HE strain was initially isolated from a patient at the University Hospital in Leuven. The MT-4 cells were seeded out in 96-well plate and the U87 cells in 24-well plates. Nanobodies were added at different concentrations together with HIV-1 and the plates were maintained at 37° C. in 10% CO2. Cytopathic effect induced by the virus was monitored by daily microscopic evaluation of the virus-infected cell cultures. […] The absorbance was measured spectrophotometrically at 490 nm with a 96-well plate reader (Molecular Devices, Sunnyvale, Calif.) and compared with four cell control replicates (cells without virus and drugs) and four virus control wells (virus-infected cells without drugs). The IC50, i.e., the drug concentration that inhibits HIV-induced cell death by 50%, was calculated for each polypeptide from the dose-response curve. […]

HIV-2 ROD = assay: HIV infection assay, MT-4 cells + HIV-2 ROD; assay type: cell-based; details: Human immunodeficiency virus 2, MT4
Text: as §1

| Compound | hEGFR ECD ka (hEGFR ECD) [M⁻¹ s⁻¹] | hEGFR ECD kd (hEGFR ECD) [s⁻¹] | IC50 [1] [nM] | IC50 [2] [nM] | loss in potency towards AMD3100 resistant virus [3] [fold] | IC50 [4] [nM] | IC50 (HIV-2 ROD) [nM] |
| --- | --- | --- | --- | --- | --- | --- | --- |
| EGFR#11: EGFR Nanobody variant 7C12 (A1E, Q108L) | 220000 | 0.037 | – | – | – | – | – |
| EGFR#32: EGFR Nanobody variant 7C12(A1E, E100fS, Q108L) | 270000 | 0.23 | – | – | – | – | – |
| c1cc(CN2CCCNCCNCCCNCC2)ccc1CN1CCCNCCNCCCNCC1 [AMD3100, reference compound] | – | – | 10 | 1.91 | ~100 | 3.9 | 21.1 |
